From patent US9957261B2 (Hoffmann-La Roche Inc., priority 2014, dated 2018)

Tests used:
rat TAAR1 = rat TAAR1 (Rattus norvegicus (Rat), UniProt Q923Y9); test: Radioligand binding assay on rat TAAR1; details: rat TAAR1, membranes of stably transfected HEK-293 cells; second value of mouse/rat pair
Method: (§1) Construction of TAAR Expression Plasmids and Stably Transfected Cell Lines
(§2) For the construction of expression plasmids the coding sequences of human, rat and mouse TAAR 1 were amplified from genomic DNA essentially as described by Lindemann et al.. The Expand High Fidelity PCR System (Roche Diagnostics) was used with 1.5 mM Mg^2+ and purified PCR products were cloned into pCR2.1-TOPO cloning vector (Invitrogen) following the instructions of the manufacturer. PCR products were subcloned into the pIRESneo2 vector (BD Clontech, Palo Alto, Calif.), and expression vectors were sequence verified before introduction in cell lines.
(§3) HEK293 cells (ATCC # CRL-1573) were cultured essentially as described by Lindemann et al. (2005). For the generation of stably transfected cell lines HEK293 cells were transfected with the pIRESneo2 expression plasmids containing the TAAR coding sequences (described above) with Lipofectamine 2000 (Invitrogen) according to the instructions of the manufacturer, and 24 hrs post transfection the culture medium was supplemented with 1 mg/ml G418 (Sigma, Buchs, Switzerland). After a culture period of about 10 d clones were isolated, expanded and tested for responsiveness to trace amines (all compounds purchased from Sigma) with the cAMP Biotrak Enzyme immunoassay (EIA) System (Amersham) following the non-acetylation EIA procedure provided by the manufacturer.
Radioligand Binding Assay on Rat TAAR1
(§4) Membrane Preparation and Radioligand Binding.
(§5) HEK-293 cells stably expressing rat TAAR1 were maintained at 37° C. and 5% CO2 in DMEM high glucose medium, containing fetal calf serum (10%, heat inactivated for 30 min at 56° C.), penicillin/streptomycin (1%), and 375 μg/ml geneticin (Gibco). Cells were released from culture flasks using trypsin/EDTA, harvested, washed twice with ice-cold PBS (without Ca^2+ and Mg^2+), pelleted at 1′000 rpm for 5 min at 4° C., frozen and stored at −80° C. Frozen pellets were suspended in 20 ml HEPES-NaOH (20 mM, pH 7.4) containing 10 mM EDTA and homogenized with a Polytron (PT 6000, Kinematica) at 14,000 rpm for 20 s. The homogenate was centrifuged at 48,000×g for 30 min at 4° C. Subsequently, the supernatant was removed and discarded, and the pellet resuspended in 20 ml HEPES-NaOH (20 mM, pH 7.4) containing 0.1 mM EDTA using the Polytron (20 s at 14,000 rpm). This procedure was repeated and the final pellet resuspended in HEPES-NaOH containing 0.1 mM EDTA and homogenized using the Polytron. Typically, aliquots of 2 ml membrane portions were stored at −80° C. With each new membrane batch the dissociation constant (Kd) was determined via a saturation curve. […] Nonspecific binding was defined as the amount of [H]—(S)-4-[(ethyl-phenyl-amino)-methyl]-4,5-dihydro-oxazol-2-ylamine bound in the presence of 10 μM unlabeled ligand. All compounds were tested at a broad range of concentrations (10 pM to 10 μM) in duplicates. […] The 96 deep well plates were incubated for 1 hr at 4° C. Incubations were terminated by rapid filtration through Unifilter-96 plates (Packard Instrument Company) and glass filters GF/C (Perkin Elmer) presoaked for 1 hr in polyethylenimine (0.3%) and washed 3 times with 1 ml of cold binding buffer. After addition of 45 μl of Microscint 40 (PerkinElmer) the Unifilter-96 plate was sealed and after 1 hr the radioactivity counted using a TopCount Microplate Scintillation Counter (Packard Instrument Company).

mouse TAAR1 = mouse TAAR1 (Mus musculus (Mouse), UniProt Q923Y8); test: Radioligand binding assay on mouse TAAR1; details: mouse TAAR1, membranes of stably transfected HEK-293 cells; first value of mouse/rat pair
Method: as §1, §2, §3
Radioligand Binding Assay on Mouse TAAR1
as §4
as §5, with “expressing mouse” for “expressing rat”, “of ^3[H]—(S)-4-[(ethyl-phenyl-amino)-methyl]-4,5-dihydro-oxazol-2-ylamine” for “of [H]—(S)-4-[(ethyl-phenyl-amino)-methyl]-4,5-dihydro-oxazol-2-ylamine”

rat TAAR1, sequence (Q923Y9 whole entry): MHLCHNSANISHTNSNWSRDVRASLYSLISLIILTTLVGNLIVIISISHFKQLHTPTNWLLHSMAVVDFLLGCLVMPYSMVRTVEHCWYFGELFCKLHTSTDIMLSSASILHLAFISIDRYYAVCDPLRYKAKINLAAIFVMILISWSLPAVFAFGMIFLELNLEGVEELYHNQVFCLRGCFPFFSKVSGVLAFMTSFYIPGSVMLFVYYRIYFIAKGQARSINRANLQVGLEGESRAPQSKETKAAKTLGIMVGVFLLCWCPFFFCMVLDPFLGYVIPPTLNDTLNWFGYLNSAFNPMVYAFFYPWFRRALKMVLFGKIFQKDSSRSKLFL
mouse TAAR1, sequence (Q923Y8 whole entry): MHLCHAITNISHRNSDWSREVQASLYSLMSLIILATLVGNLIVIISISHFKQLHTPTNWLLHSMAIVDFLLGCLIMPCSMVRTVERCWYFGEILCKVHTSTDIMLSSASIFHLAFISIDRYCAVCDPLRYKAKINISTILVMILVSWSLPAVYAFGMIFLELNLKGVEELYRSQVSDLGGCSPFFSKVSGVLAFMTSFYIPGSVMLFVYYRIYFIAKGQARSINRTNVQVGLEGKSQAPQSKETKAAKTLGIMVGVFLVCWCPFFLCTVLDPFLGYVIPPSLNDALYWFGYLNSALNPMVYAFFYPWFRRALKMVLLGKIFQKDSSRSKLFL

| Ki (rat TAAR1) | Ki (mouse TAAR1) | SMILES |
| --- | --- | --- |
| 0.0544 µM | 0.232 µM | Cc1cc(C(=O)Nc2ccc3c(c2)CC[C@@H](N)C3)nc(C(F)(F)F)n1 [Example 6, (R)—N-(6-Amino-5,6,7,8-tetrahydronaphthalen-2-yl)-6-methyl-2-(trifluoromethyl)-pyrimidine-4-carboxamide] |
| 0.0216 µM | 0.0187 µM | CCOc1cc(C(=O)Nc2ccc3c(c2)CC[C@H](N)C3)ccn1 [Example 19, (S)—N-(6-Amino-5,6,7,8-tetrahydronaphthalen-2-yl)-2-ethoxyisonicotinamide] |
| 0.035 µM | 0.0055 µM | NC1CCc2cc(C(=O)NCc3ccc(C(F)(F)F)cc3)ccc2C1 (centres unmarked) [Example 35, 6-Amino-N-(4-(trifluoromethyl)benzyl)-5,6,7,8-tetrahydronaphthalene-2-carboxamide] |
| 0.0037 µM | 0.0028 µM | Cc1ccc(-n2cc(C(=O)Nc3ccc4c(c3)CC[C@H](N)C4)cn2)cc1 [Example 27, (S)—N-(6-Amino-5,6,7,8-tetrahydronaphthalen-2-yl)-1-p-tolyl-1H-pyrazole-4-carboxamide] |
| 0.0039 µM | 0.002 µM | N[C@H]1CCc2cc(NC(=O)NCc3cccc(OC(F)(F)F)c3)ccc2C1 [Example 63, (S)-1-(6-Amino-5,6,7,8-tetrahydronaphthalen-2-yl)-3-(3-(trifluoromethoxy)benzyl)urea] |
| 0.0436 µM | 0.0581 µM | Cc1cc(C(=O)Nc2ccc3c(c2)OC[C@H](N)C3)nc(C(F)(F)F)n1 [Example 12, (R)—N-(3-Aminochroman-7-yl)-6-methyl-2-(trifluoromethyl)pyrimidine-4-carboxamide] |
| 0.0009 µM | 0.0008 µM | N[C@H]1CCc2cc(C(=O)Nc3cccc(OC(F)(F)F)c3)ccc2C1 [Example 79, (S)-6-Amino-N-(3-(trifluoromethoxy)phenyl)-5,6,7,8-tetrahydronaphthalene-2-carboxamide] |
| 0.0061 µM | 0.0009 µM | Cn1nc(C(=O)Nc2ccc3c(c2)OC[C@H](N)C3)cc1-c1cccs1 [Example 85, (R)—N-(3-Aminochroman-7-yl)-1-methyl-5-(thiophen-2-yl)-1H-pyrazole-3-carboxamide] |
| 0.309 µM | 0.105 µM | NC1CCc2cc(C(=O)Nc3cnc(C4CC4)nc3)ccc2C1 (centres unmarked) [Example 32, 6-Amino-N-(2-cyclopropylpyrimidin-5-yl)-5,6,7,8-tetrahydronaphthalene-2-carboxamide] |

Further lines, the molecule ahead of its results:

| SMILES | Ki (rat TAAR1) | Ki (mouse TAAR1) |
| --- | --- | --- |
| N[C@H]1CCc2cc(Nc3ccc(C(F)(F)F)cn3)ccc2C1 [Example 38, (S)—N6-(5-(Trifluoromethyl)pyridin-2-yl)-1,2,3,4-tetrahydronaphthalene-2,6-diamine] | 0.0021 µM | 0.0032 µM |
| N[C@H]1CCc2c(ccc(NC(=O)c3ccc(Cl)nc3)c2Cl)C1 [Example 76, (S)—N-(6-Amino-1-chloro-5,6,7,8-tetrahydronaphthalen-2-yl)-6-chloronicotinamide] | 0.302 µM | > 1.51 µM |
| N[C@H]1CCc2cc(NC(=O)Nc3ccc(C(F)(F)F)nc3)ccc2C1 [Example 16, (S)-1-(6-Amino-5,6,7,8-tetrahydronaphthalen-2-yl)-3-(6-(trifluoromethyl)pyridin-3-yl)urea] | 0.0023 µM | 0.0045 µM |
| N[C@@H]1CCc2cc(NC(=O)c3ccc(Cl)cc3)ccc2C1 [Example 14, (R)—N-(6-Amino-5,6,7,8-tetrahydronaphthalen-2-yl)-4-chlorobenzamide] | 0.0069 µM | 0.0092 µM |
| N[C@H]1CCc2cc(NC(=O)c3ccnc(C(F)(F)F)c3)ccc2C1 [Example 45, (S)—N-(6-Amino-5,6,7,8-tetrahydronaphthalen-2-yl)-2-(trifluoromethyl)isonicotinamide] | 0.0063 µM | 0.0117 µM |
| CCOc1[nH]nc(C(=O)Nc2ccc3c(c2)OC[C@H](N)C3)c1C [Example 81, (R)—N-(3-Aminochroman-7-yl)-5-ethoxy-4-methyl-1H-pyrazole-3-carboxamide] | 0.0277 µM | 0.0082 µM |
| N[C@@H]1CCc2cc(NC(=O)c3ccccc3Cl)ccc2C1 [Example 15, (R)—N-(6-Amino-5,6,7,8-tetrahydronaphthalen-2-yl)-2-chlorobenzamide] | 0.6 µM | 1.97 µM |
| N[C@@H]1CCc2cc(C(=O)Nc3cccc(OC(F)(F)F)c3)ccc2C1 [Example 78, (R)-6-Amino-N-(3-(trifluoromethoxy)phenyl)-5,6,7,8-tetrahydronaphthalene-2-carboxamide] | 0.0044 µM | 0.0073 µM |
| CCc1n[nH]c(C(=O)Nc2ccc3c(c2)OC[C@H](N)C3)c1C [Example 88, (R)—N-(3-Aminochroman-7-yl)-3-ethyl-4-methyl-1H-pyrazole-5-carboxamide] | 0.0119 µM | 0.0083 µM |
| CCCc1cc(C(=O)Nc2ccc3c(c2)OC[C@H](N)C3)nn1CC(F)F [Example 10, (R)—N-(3-Aminochroman-7-yl)-1-(2,2-difluoroethyl)-5-propyl-1H-pyrazole-3-carboxamide] | 0.0034 µM | 0.0111 µM |
| N[C@H]1CCc2cc(NC(=O)c3cccnc3F)ccc2C1 [Example 39, (S)—N-(6-Amino-5,6,7,8-tetrahydronaphthalen-2-yl)-2-fluoronicotinamide] | 0.14 µM | 0.476 µM |
| N[C@H]1CCc2cc(NC(=O)c3cnc(Cl)c(Cl)c3)ccc2C1 [Example 41, (S)—N-(6-Amino-5,6,7,8-tetrahydronaphthalen-2-yl)-5,6-dichloronicotinamide] | 0.0031 µM | 0.0031 µM |
| N[C@H]1CCc2cc(NC(=O)c3cc(Cl)nc(Cl)c3)ccc2C1 [Example 46, (S)—N-(6-Amino-5,6,7,8-tetrahydronaphthalen-2-yl)-2,6-dichloroisonicotinamide] | 0.0022 µM | 0.0042 µM |
| CCn1nc(C(=O)Nc2ccc3c(c2)OC[C@H](N)C3)c(Br)c1OCC(F)F [Example 92, (R)—N-(3-Aminochroman-7-yl)-4-bromo-5-(2,2-difluoroethoxy)-1-ethyl-1H-pyrazole-3-carboxamide] | 0.0023 µM | 0.0151 µM |
| CCCc1cc(C(=O)Nc2ccc3c(c2)OCC(N)C3)nn1CC(F)F (centres unmarked) [Example 8, N-(3-Aminochroman-7-yl)-1-(2,2-difluoroethyl)-5-propyl-1H-pyrazole-3-carboxamide] | 0.01 µM | 0.0198 µM |
| NC1CCc2cc(C(=O)Nc3ccc(Cl)cc3)ccc2C1 (centres unmarked) [Example 57, 6-Amino-N-(4-chlorophenyl)-5,6,7,8-tetrahydronaphthalene-2-carboxamide] | 0.0142 µM | 0.0116 µM |
